Laboratory results from ChEMBL document CHEMBL2406993, “Deconstruction of a nutlin: dissecting the binding determinants of a potent protein-protein interaction inhibitor” (ACS Med Chem Lett, 2013).
Activity calls are given as the source filed them. The calls are words filed in the database; no cut-off is given here.

What was measured:
Homo sapiens [1] = species: Homo sapiens; test: Inhibition of [15N]-labeled humanized-Xenopus MDM2 (13-119 amino acids) interaction with p53 at 1 mM by NMR method
Homo sapiens [2] = species: Homo sapiens; test: Inhibition of Humanized-Xenopus MDM2 (13-119 amino acids) interaction with p53 at 1 to 2.5 mM by SPR analysis
Homo sapiens [3] = species: Homo sapiens; test: Inhibition of [15N]-labeled humanized-Xenopus MDM2 (13-119 amino acids) interaction with p53 at 2 mM by NMR method
[4] = Inhibition of Humanized-Xenopus MDM2 (13-119 amino acids) interaction with p53 by SPR analysis; design: species or system Homo sapiens
Homo sapiens [5] = species: Homo sapiens; test: Inhibition of [15N]-labeled humanized-Xenopus MDM2 (13-119 amino acids) interaction with p53 at 0.4 mM by NMR method
Homo sapiens [6] = species: Homo sapiens; test: Inhibition of [15N]-labeled humanized-Xenopus MDM2 (13-119 amino acids) interaction with p53 at 0.5 mM by NMR method
Homo sapiens [7] = species: Homo sapiens; test: Inhibition of Humanized-Xenopus MDM2 (13-119 amino acids) interaction with p53 at 100 uM by SPR analysis

SMILES | inhibition (Homo sapiens [1]) | inhibition (Homo sapiens [2]) | Kd [4] [µM] | also measured
c1c[nH]cn1 | inactive | inactive |  | 
CCOc1cc(C(C)(C)C)ccc1-c1ncc[nH]1 |  | inactive |  | inhibition (Homo sapiens [3]): inactive
CCOc1cc(C(C)(C)C)ccc1C1=N[C@@](C)(c2ccc(Cl)cc2)[C@@](C)(c2ccc(Cl)cc2)N1 |  |  | 20 | inhibition (Homo sapiens [5]): Active
CCOc1cc(C(C)(C)C)ccc1C1=N[C@@](C)(c2ccc(Cl)cc2)[C@@](C)(c2ccc(Cl)cc2)N1C(=O)N1CCN(CCCS(C)(=O)=O)CC1 [RO-5045337] |  |  | 0.22 | inhibition (Homo sapiens [6]): Active
Clc1ccccc1 | inactive | inactive |  | 
CCOc1cc(C(C)(C)C)ccc1C1=NCC(c2ccc(Cl)cc2)N1 (configuration not stated) |  |  |  | inhibition (Homo sapiens [3]): Active; inhibition (Homo sapiens [7]): inactive
CC1=N[C@@H](c2ccc(Cl)cc2)[C@@H](c2ccc(Cl)cc2)N1 |  |  | 26 | inhibition (Homo sapiens [5]): Active
CC1=N[C@@H](c2ccccc2)[C@@H](c2ccccc2)N1 |  | inactive |  | inhibition (Homo sapiens [3]): inactive
CC1=N[C@@](C)(c2ccc(Cl)cc2)[C@@](C)(c2ccc(Cl)cc2)N1C(=O)N1CCN(CCCS(C)(=O)=O)CC1 | Active |  | 14 | 
CCOc1cc(C(C)(C)C)ccc1C1=NC(c2ccccc2)CN1C(=O)N1CCN(CCCS(C)(=O)=O)CC1 (configuration not stated) | Active |  | 1000 | 
CCOc1cc(C(C)(C)C)ccc1C1=NCCN1C(=O)N1CCN(CCCS(C)(=O)=O)CC1 | inactive |  |  | inhibition (Homo sapiens [7]): inactive
